The values that follow come from US20260048099A1, “SYNERGISTIC INTERACTIONS FOR IMPROVED CANCER TREATMENT” (THE UNITED STATES OF AMERICA, AS REPRESENTED BY THE …, priority 2022, published 2026).

The test system of experiment [1] is tumor-infiltrating CD8^+T, NK cells and DC populations in EO771 tumors. Briefly: Flow cytometry and IHC of immune infiltrates in EO771 tumors and draining lymph nodes. To be noted: flow cytometry. The experiment is classed as in vivo, C57BL/6 mice. How it is done: EO771 tumors were analyzed by flow cytometry and immunohistochemistry (IHC) to explore the changes in the tumor immune phenotype upon hetIL-15 treatment. The shorter treatment schedule consisting of 3 hetIL-15 injections was used for these analyses and the tumors were assessed 48 h after the last injection (FIG. 1A). […] Overall, hetIL-15 administration altered the tumor microenvironment by promoting the intratumoral infiltration of activated cytotoxic T and NK cells, as we previously reported (Bergamaschi et al., 2020; Ng et al., 2017).
Guided by our transcriptomic data and our recent report (Bergamaschi et al., 2020), we established a flow cytometry staining protocol (FIG. 3B) that allows distinction of different myeloid cell populations (Bottcher et al., 2018; Guilliams et al., 2016). CD103^+cDC1s were defined as Lin(NK1.1,CD19,B220,CD3)^negCD64^−MHCII^+CD11c^+CD103^+CD11b^−; CD11b^+cDC2s were defined as Lin(NK1.1,CD19,B220,CD3)^negCD64^−MHCII^+CD11c^+CD103^−CD11b^+ and macrophages were defined as Lin(NK1.1, CD19,B220,CD3)^negCD64^+F4/80^+. […] Importantly, tumor infiltration by both […] and CD103^intCD11b^+DCs inversely correlated with the EO771 tumor size in hetIL-15 treated animals 48 hrs after the 3rd hetIL-15 injection (FIG. 3F). In contrast, no correlation between intratumoral CD11b^+cDC2s and tumor size was observed (FIG. 3F).
Tissue samples, including tumors, were fixed in 10% neutral buffered formalin (NBF, Sigma) then routinely processed and paraffin embedded. Tumor and lung sections were dewaxed and rehydrated and then were stained with hematoxylin and eosin (H&E). For immunohistochemistry, sections were antigen-retrieved with heat-induced or enzymatic method. Peroxidase activity was blocked using 1.5% hydrogen peroxide. Sections were blocked with different blocking protocols, depending on the antibody. […]
At necropsy tumors and dLNs were processed for flow cytometric analysis. […] The samples were acquired on a Fortessa (BD Biosciences) flow cytometer, and the data were analyzed using the FlowJo software (Tree Star).
A general note: A flow cytometer gives signals particle by particle.

In another experiment the test system is xenograft models. To be noted: cited from earlier work.
The subject of the next experiment is NK-92 cells. The experiment in a line: IFN-γ production by stimulated NK-92 cells. The experiment is classed as cell-based. To be noted: stimulation of NK-92 cells.

With `CC(C)(C)c1cc(NC(=O)Nc2ccc(-c3cn4c(n3)sc3cc(OCCN5CCOCC5)ccc34)cc2)no1.Cl.Cl` [AC220, N-(5-tert-butyl-isoxazol-3-yl)-N′-{4-[7-(2-morpholin-4-yl-ethoxy)imidazo[2,1-b][1,3]benzothiazol-2-yl]phenyl}urea dihydrochloride], in experiment [1], the “Intratumoral CD11b+cDC2 (cells per gram of tissue)” value is listed as “increased infiltration of CD11b^+cDC2s”; the “Intratumoral CD103+cDC1 (cells per gram of tissue)” value was “a minor effect on CD103+cDC1s, decreasing this DC population”; the “Intratumoral CD103intCD11b+DC (cells per gram of tissue)” value was “no significant difference”. For the same molecule, the “Lowest dose with activity in animal models” value with xenograft models (doses as low as) was 1 mg/kg. The Efficacy and tolerability result with xenograft models (xenograft models) is “good efficacy and tolerability”.

B1: IL-12p70: active IL-12 heterodimer of IL-12A (p35) and IL-12B (p40), referred to as p70 (protein, UniProt P29459 23-219; P29460 23-328, looked up)
Interleukin-12 subunit alpha: RNLPVATPDPGMFPCLHHSQNLLRAVSNMLQKARQTLEFYPCTSEEIDHEDITKDKTSTVEACLPLELTKNESCLNSRETSFITNGSCLASRKTSFMMALCLSSIYEDLKMYQVEFKTMNAKLLMDPKRQIFLDQNMLAVIDELMQALNFNSETVPQKSSLEEPDFYKTKIKLCILLHAFRIRAVTIDRVMSYLNAS
Interleukin-12 subunit beta: IWELKKDVYVVELDWYPDAPGEMVVLTCDTPEEDGITWTLDQSSEVLGSGKTLTIQVKEFGDAGQYTCHKGGEVLSHSLLLLHKKEDGIWSTDILKDQKEPKNKTFLRCEAKNYSGRFTCWWLTTISTDLTFSVKSSRGSSDPQGVTCGAATLSAERVRGDNKEYEYSVECQEDSACPAAEESLPIEVMVDAVHKLKYENYTSSFFIRDIIKPDPPKNLQLKPLKNSRQVEVSWEYPDTWSTPHSYFSLTFCVQVQGKSKREKKDRVFTDKTSATVICRKNASISVRAQDRYYSSSWSEWASVPCS
Regarding B1, the IFN-γ production result in the experiment with NK-92 cells is reported as “results in IFN-γ production”.
